These results are taken from US9475854B2, “Lead compound for otoprotection: targeting HGF signaling with dihexa” (Washington State University, priority 2014, dated 2016).

The structures appear in SMILES notation. Square brackets hold non-standard residues; d marks the D form. Peptide text beside a SMILES is read from it. * marks the point of attachment. Hexanoyl = CCCCCC(=O)*; Ahx = NCCCCCC(=O)O

For data set [1], the system named is zebrafish lateral line hair cells. Kind of data set: Protection of zebrafish lateral line hair cells from aminoglycoside toxicity (hair cell survival). The format is in vivo. As to conditions: for hair cell survival rate: 1 μM Dihexa. The text has this:
The data is presented as mean+1 standard deviation (s.d.) ***p<0.005. ****p<0.001, with the number of stars being the confidence for the measurements and the p (i.e., p-value) being the probability of obtaining a test statistic result at least as extreme as the one that was actually observed. It is to be appreciated the differences are considered significant at P<0.05. Note also that the 0 Dihexa concentration levels in FIG. 1 and FIG. 2 are control levels no protective Dihexa was introduced as just Neomycin and Gentamicin is present in the hair cells.
Such an example method of operation can be enabled by providing Dihexa concentrations for each ototoxin. […] Toxin concentrations and treatment times are selected so that in each case, a range of about 60% up to about 80% hair cell loss is achieved, sufficient to robustly detect protection. While the methodology described above provides desirable information for a variety of ototoxins, the Dihexa-mediated protection for neomycin, gentamicin, and kanamycin, as enabled herein, is the most desirable because these three antibiotics activate partially independent cell death pathways, such that a single compound may not universally protect hair cells from aminoglycoside toxicity (Owens et al., 2009; Coffin et al., 2009; Vlasits et al., 2012; Coffin et al., 2013).
As part of the analysis process, after treatment, hair cell survival is more often quantitatively assessed by labeling with either the vital dye DASPEI for assessment in live, anesthetized fish, or with an antibody to parvalbumin for quantification in fixed tissue (Harris et al., 2003; Owens et al., 2009; Coffin et al., 2009, 2013). DASPEI allows for rapid assessment with minimal tissue processing time, while immunofluorescence is used to validate DASPEI assessment scores. Labeled hair cells are thereafter viewed using fluorescence microscopy and quantified as described in the published literature (e.g., Harris et al., 2003; Coffin et al., 2009, 2013). […]

In data set [2] the test system is rat dementia model. As to conditions: in vivo administration (McCoy et al., 2013; unpublished data); cited from earlier work.
The nature of data set [3]: Short duration safety studies. In kind it is in vivo. An excerpt:
This is unsurprising since oncogenesis requires multiple mutations including both oncogene induction and tumor suppressor attenuation. Accordingly, Dihexa, as utilized herein, can also be delivered locally via intratympanic membrane injection of a Dihexa-containing hydrogel (e.g., Salt et al., 2011; Wang et al., 2011) as a way of the proof-of-principle that Dihexa is robustly otoprotective in for example, but not limited to, pre-clinical models.

Data set [4] relates to rat Parkinson's Disease model. Particulars: in vivo administration (McCoy et al., 2013; unpublished data); cited from earlier work.
The test system of data set [5] is rats. Particulars: in vivo in rats (Owens et al., 2008, Rubel et al., 2011); cited from earlier work.

Turning to `CCCCCC(=O)N[C@@H](Cc1ccc(O)cc1)C(=O)N[C@H](C(=O)NCCCCCC(N)=O)[C@@H](C)CC` [Dihexa] (Hexanoyl-Tyr-Ile-[Ahx]-NH2), in data set [1] (1 μM Dihexa across Neomycin dose levels, FIG. 3), the “protection from Neomycin-induced hair cell death” value was “robust protection”. For the same compound, the “hair cell survival rate” value in data set [1] (50 μM Gentamycin toxicity, FIG. 2) was “greater than 40%”; in data set [1] (200 μM Neomycin toxicity, FIG. 1), “greater than 60%”. In addition, the “symptoms in rat dementia model” value in data set [2] was “significantly attenuates symptoms”. The neoplastic induction result in data set [3] is “lack of neoplastic induction”. Besides, the toxicity entry in data set [3] is reported as “no apparent toxicity”. Also, in data set [4], the “symptoms in rat Parkinson's Disease model” value was “significantly attenuates symptoms”.

As to `CCN1CCc2c(sc(NC(=O)Nc3ccc(Cl)cc3)c2C(N)=O)C1` [PROTO-1], the protection from aminoglycosides entry in data set [5] is “confers protection”.
